What was measured:
Assay in all cases: relative viability (nuclei count vs DMSO), 5 days (fraction); higher = more cells survive
[1] = compound: C1CC2=C(C1)C=C(C=C2)OC3=NC(=C4C(=N3)N(C=N4)CC5=CC=C(C=C5)C6=CC=CC=C6)N[C@@H](CC7=CC=CC=C7)CO [QS11] + CC1(C)CCC(c2ccc(Cl)cc2)=C(CN2CCN(c3ccc(C(=O)NS(=O)(=O)c4ccc(N[C@H](CCN5CCOCC5)CSc5ccccc5)c(S(=O)(=O)C(F)(F)F)c4)cc3)CC2)C1 [Navitoclax] (partner 0.5 µM)
Summary of the method: (§1)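 Relative viability equals treated-well nuclei counts divided by vehicle-well nuclei counts. Counts came from 4× images of lung cancer cell lines grown in 1536-well plates for 5 days after pin-tool dosing on the day after seeding. Dosing used one drug alone or a fixed anchor-drug dose plus five library-drug doses (not always all listed) in √10 steps, and values are medians of duplicate plates.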

[2] = compound: C1CC2=C(C1)C=C(C=C2)OC3=NC(=C4C(=N3)N(C=N4)CC5=CC=C(C=C5)C6=CC=CC=C6)N[C@@H](CC7=CC=CC=C7)CO [QS11] + NC(=O)Nc1cc(-c2cccc(F)c2)sc1C(=O)N[C@H]1CCCNC1 [AZD7762] (partner 0.2 µM)
Summary of the method: as §1

[3] = compound: CC1=C(C=C(C=C1)NC(=O)C2=CC(=CC=C2)C(C)(C)C#N)NC3=CC4=C(C=C3)N=CN(C4=O)C [AZ628] + CC(=O)c1c(C)c2cnc(Nc3ccc(N4CCNCC4)cn3)nc2n(C2CCCC2)c1=O [Palbociclib] (partner 0.5 µM)
Summary of the method: as §1

[4] = compound: C[As](C)SC[C@H](NC(=O)CC[C@H](N)C(=O)O)C(=O)NCC(=O)O [Darinaparsin] + CC(=O)c1c(C)c2cnc(Nc3ccc(N4CCNCC4)cn3)nc2n(C2CCCC2)c1=O [Palbociclib] (partner 0.5 µM)
Summary of the method: as §1

Cell Line: HCC-827
- relative viability ([1]; first compound 0.08 µM): 0.987
- relative viability ([1]; first compound 0.253 µM): 1.01
- relative viability ([1]; first compound 0.8 µM): 0.833
- relative viability ([1]; first compound 2.53 µM): 0.944
- relative viability ([1]; first compound 8 µM): 0.899
- relative viability ([2]; first compound 0.08 µM): 0.194
- relative viability ([2]; first compound 0.253 µM): 0.201
- relative viability ([2]; first compound 0.8 µM): 0.234
- relative viability ([2]; first compound 2.53 µM): 0.307
- relative viability ([2]; first compound 8 µM): 0.187
- relative viability ([3]; first compound 0.08 µM): 0.474
- relative viability ([3]; first compound 0.253 µM): 0.456
- relative viability ([3]; first compound 0.8 µM): 0.357
- relative viability ([3]; first compound 2.53 µM): 0.487
- relative viability ([3]; first compound 8 µM): 0.311
- relative viability ([4]; first compound 0.08 µM): 0.514
- relative viability ([4]; first compound 0.8 µM): 0.519
- relative viability ([4]; first compound 2.53 µM): 0.414
- relative viability ([4]; first compound 8 µM): 0.477

Cell Line: HOP-62
- relative viability ([1]; first compound 0.08 µM): 1.07
- relative viability ([1]; first compound 0.253 µM): 1.15
- relative viability ([1]; first compound 0.8 µM): 1.04
- relative viability ([1]; first compound 2.53 µM): 0.785
- relative viability ([1]; first compound 8 µM): 1.22
- relative viability ([2]; first compound 0.08 µM): 0.556
- relative viability ([2]; first compound 0.253 µM): 0.611
- relative viability ([2]; first compound 0.8 µM): 0.538
- relative viability ([2]; first compound 2.53 µM): 0.608
- relative viability ([2]; first compound 8 µM): 0.582
- relative viability ([3]; first compound 0.08 µM): 0.49
- relative viability ([3]; first compound 0.253 µM): 0.473
- relative viability ([3]; first compound 0.8 µM): 0.491
- relative viability ([3]; first compound 2.53 µM): 0.492
- relative viability ([3]; first compound 8 µM): 0.314
- relative viability ([4]; first compound 0.08 µM): 0.541
- relative viability ([4]; first compound 0.8 µM): 0.411
- relative viability ([4]; first compound 2.53 µM): 0.385
- relative viability ([4]; first compound 8 µM): 0.593

Cell Line: IA-LM
- relative viability ([1]; first compound 0.08 µM): 0.762
- relative viability ([1]; first compound 0.253 µM): 0.828
- relative viability ([1]; first compound 0.8 µM): 0.69
- relative viability ([1]; first compound 2.53 µM): 0.5
- relative viability ([1]; first compound 8 µM): 0.614

Cell Line: LC-2-ad
- relative viability ([1]; first compound 0.08 µM): 0.407
- relative viability ([1]; first compound 0.253 µM): 0.357
- relative viability ([1]; first compound 0.8 µM): 0.488
- relative viability ([1]; first compound 2.53 µM): 0.335
- relative viability ([1]; first compound 8 µM): 0.384
- relative viability ([2]; first compound 0.08 µM): 0.726
- relative viability ([2]; first compound 0.253 µM): 0.865
- relative viability ([2]; first compound 0.8 µM): 0.666
- relative viability ([2]; first compound 2.53 µM): 0.926
- relative viability ([2]; first compound 8 µM): 1.03
- relative viability ([3]; first compound 0.08 µM): 0.473
- relative viability ([3]; first compound 0.253 µM): 0.51
- relative viability ([3]; first compound 0.8 µM): 0.424
- relative viability ([3]; first compound 2.53 µM): 0.468
- relative viability ([3]; first compound 8 µM): 0.373
- relative viability ([4]; first compound 0.08 µM): 0.554
- relative viability ([4]; first compound 0.8 µM): 0.523
- relative viability ([4]; first compound 2.53 µM): 0.383
- relative viability ([4]; first compound 8 µM): 0.602

Cell Line: LCLC-103H
- relative viability ([2]; first compound 0.08 µM): 0.861
- relative viability ([2]; first compound 0.253 µM): 0.775
- relative viability ([2]; first compound 2.53 µM): 0.772
- relative viability ([2]; first compound 8 µM): 0.881
- relative viability ([3]; first compound 0.08 µM): 0.478
- relative viability ([3]; first compound 0.253 µM): 0.48
- relative viability ([3]; first compound 0.8 µM): 0.44
- relative viability ([3]; first compound 2.53 µM): 0.314
- relative viability ([3]; first compound 8 µM): 0.417
- relative viability ([4]; first compound 0.08 µM): 0.49
- relative viability ([4]; first compound 0.8 µM): 0.427
- relative viability ([4]; first compound 2.53 µM): 0.49
- relative viability ([4]; first compound 8 µM): 0.533

Cell Line: NCI-H358
- relative viability ([2]; first compound 0.08 µM): 0.542
- relative viability ([2]; first compound 0.253 µM): 0.474
- relative viability ([2]; first compound 0.8 µM): 0.529
- relative viability ([2]; first compound 2.53 µM): 0.6
- relative viability ([2]; first compound 8 µM): 0.681
- relative viability ([3]; first compound 0.08 µM): 0.126
- relative viability ([3]; first compound 0.253 µM): 0.131
- relative viability ([3]; first compound 0.8 µM): 0.136
- relative viability ([3]; first compound 2.53 µM): 0.142
- relative viability ([3]; first compound 8 µM): 0.123
- relative viability ([4]; first compound 0.08 µM): 0.141
- relative viability ([4]; first compound 0.8 µM): 0.128
- relative viability ([4]; first compound 2.53 µM): 0.127
- relative viability ([4]; first compound 8 µM): 0.139

Cell Line: NCI-H520
- relative viability ([1]; first compound 0.253 µM): 1.06
- relative viability ([1]; first compound 0.8 µM): 1.23
- relative viability ([1]; first compound 2.53 µM): 1.22
- relative viability ([1]; first compound 8 µM): 1.14
- relative viability ([3]; first compound 0.08 µM): 0.21
- relative viability ([3]; first compound 0.253 µM): 0.224
- relative viability ([3]; first compound 0.8 µM): 0.197
- relative viability ([3]; first compound 2.53 µM): 0.254
- relative viability ([3]; first compound 8 µM): 0.199
- relative viability ([4]; first compound 0.08 µM): 0.149
- relative viability ([4]; first compound 0.8 µM): 0.208
- relative viability ([4]; first compound 2.53 µM): 0.216
- relative viability ([4]; first compound 8 µM): 0.248

Cell Line: NCI-H522
- relative viability ([2]; first compound 0.08 µM): 0.798
- relative viability ([2]; first compound 0.253 µM): 0.871
- relative viability ([2]; first compound 0.8 µM): 0.878
- relative viability ([2]; first compound 2.53 µM): 1.11
- relative viability ([2]; first compound 8 µM): 0.863
- relative viability ([3]; first compound 0.08 µM): 0.947
- relative viability ([3]; first compound 0.253 µM): 0.954
- relative viability ([3]; first compound 0.8 µM): 0.842
- relative viability ([3]; first compound 2.53 µM): 1.04
- relative viability ([3]; first compound 8 µM): 0.75
- relative viability ([4]; first compound 0.08 µM): 1.11
- relative viability ([4]; first compound 0.8 µM): 1.01
- relative viability ([4]; first compound 2.53 µM): 0.957
- relative viability ([4]; first compound 8 µM): 1.03

Cell Line: NCI-H596
- relative viability ([1]; first compound 0.08 µM): 0.94
- relative viability ([1]; first compound 0.253 µM): 0.961
- relative viability ([1]; first compound 0.8 µM): 1.07
- relative viability ([1]; first compound 2.53 µM): 0.969
- relative viability ([1]; first compound 8 µM): 1.24
- relative viability ([2]; first compound 0.08 µM): 1.07
- relative viability ([2]; first compound 0.253 µM): 0.94
- relative viability ([2]; first compound 0.8 µM): 1.22
- relative viability ([2]; first compound 2.53 µM): 1.03
- relative viability ([2]; first compound 8 µM): 1.27

Cell Line: NCI-H650
- relative viability ([2]; first compound 0.08 µM): 0.762
- relative viability ([2]; first compound 0.253 µM): 0.981
- relative viability ([2]; first compound 0.8 µM): 0.775
- relative viability ([2]; first compound 2.53 µM): 1.05
- relative viability ([2]; first compound 8 µM): 0.645
- relative viability ([3]; first compound 0.08 µM): 0.366
- relative viability ([3]; first compound 0.253 µM): 0.425
- relative viability ([3]; first compound 0.8 µM): 0.475
- relative viability ([3]; first compound 2.53 µM): 0.545
- relative viability ([3]; first compound 8 µM): 0.374
- relative viability ([4]; first compound 0.08 µM): 0.325
- relative viability ([4]; first compound 0.8 µM): 0.331
- relative viability ([4]; first compound 2.53 µM): 0.339
- relative viability ([4]; first compound 8 µM): 0.322

Cell Line: NCI-H661
- relative viability ([3]; first compound 0.08 µM): 0.418
- relative viability ([3]; first compound 0.253 µM): 0.378
- relative viability ([3]; first compound 0.8 µM): 0.368
- relative viability ([3]; first compound 2.53 µM): 0.366
- relative viability ([3]; first compound 8 µM): 0.386
- relative viability ([4]; first compound 0.08 µM): 0.385
- relative viability ([4]; first compound 0.8 µM): 0.355
- relative viability ([4]; first compound 2.53 µM): 0.442
- relative viability ([4]; first compound 8 µM): 0.404

Cell Line: NCI-H1299
- relative viability ([1]; first compound 0.08 µM): 1.04
- relative viability ([1]; first compound 0.253 µM): 1.07
- relative viability ([1]; first compound 0.8 µM): 1.03
- relative viability ([1]; first compound 2.53 µM): 0.923
- relative viability ([1]; first compound 8 µM): 0.839

Reference: the supplement of paper PMC10307832
